Test results: US20140377324A1, “Pharmaceutical Composition Comprising miRNA-100 And Its Use In The Modulation of Blood Vessel Growth and Endothelial Inflammation” (Universitatsklinikum Freiburg, priority 2009, published 2014)
“Also recorded” adds a separate entry of the source. {Chol} = cholesterol

Columns and labels:
[1] = tissue distribution of fluorescence-labeled antagomir; assay type: in vivo; conditions: mice
[2] = tested on: murine hindlimb ischemia model; test: murine hindlimb ischemia model, perfusion restoration and capillary density; assay type: in vivo, C57/BI6J mice
Experimental: (§1) The murine hindlimb ischemia model conforms to the Guide for the Care and Use of Laboratory Animals published by the U.S. National Institutes of Health and was performed after securing appropriate institutional approval. Unilateral femoral artery occlusion was performed in C57/BI6J mice (Charles River Lab., Sulzfeld, Germany) by double ligation of the superficial femoral artery proximal to the deep femoral artery and the distal femoral artery just above the knee joint. A sham operation without arterial occlusion was performed on the contralateral leg. For molecular biology, histology and in situ hybridization, tissue was carefully dissected and snap-frozen in liquid nitrogen until further analysis. For dissection of isolated collateral arteries, the hindlimb vasculature was […] with liquid latex, to allow the identification and isolation of individual arterial vessels.
(§2) To assess whether inhibition of miR-100 can be be used to stimulate revascularization in vivo, mice were treated with a specific antagomir against miR-100 after induction of unilateral hindlimb ischemia.
In addition, two separate groups of mice were treated with daily injections of the mTOR-inhibitor rapamycin or solvent to investigate the timecourse of hindlimb perfusion restoration under conditions of endogenous miR-100 downregulation, but impaired signalling of its target gene mTOR.

miR-100 [3] = test: miR-100 expression in mouse tissues after antagomir treatment; assay type: in vivo; conditions: mice, three doses of antagomir; FIG. 8
Experimental: as §1, §2

endothelial cells [4] = test: planar matrigel assay, endothelial network formation; assay type: cell-based, human
HUVECs / human PBMCs = test: Leukocyte-HUVEC interaction under flow conditions (flow chamber); assay type: cell-based; conditions: TNF-alpha 30 ng/ml for 24 h, flow 1 dyn/cm^2; FIG. 15
Experimental: HUVECs were grown to confluence, transfected with either anti-miR-100 or pre-Mir-100 oligonucelotides or scrambled controls and stimulated with TNF-alpha 30 ng/ml for 24 h. Human PBMCs (HPBMCs) were obtained from buffy coats of healthy donors by Ficoll-Hypaque density gradient centrifugation. The flow chamber was assembled and placed onto an inverted microscope stage, and freshly isolated HPBMCs (1×10^6/ml) were perfused across the endothelial monolayers. In all experiments, leukocyte interactions were determined over 105 min at 1 dyn/cm^2. Cells interacting on the surface of the endothelium were visualized and recorded using phase-contrast microscopy.
To test if this change in expression results in a functional difference in leukocyte rolling and adhesion to the endothelial surface, the attachment of isolated peripheral blood mononuclear cells (PBMC) to transfected endothelial cells was investigated under physiologic flow conditions in a flow chamber apparatus.
A physiological venous blood flow (1 dynes/cm^2) was induced by a flow chamber apparatus and the number of rolling or adherent peripheral blood mononuclear cells (PBMCs) was counted.

endothelial cells [5] = test: flow cytometric quantification of Annexin V-staining (apoptosis); assay type: cell-based, human; conditions: compared to irrelevant control sequence, FIG. 3
Text: (§3) To assess whether the observed differences were secondary to effects on cellular viability, endothelial cell apoptosis and proliferation following miR-100 modulation was checked. […] DNA-synthesis rate was further analyzed by measuring BrdU-Incorporation, which correlates well with cellular proliferation.

miR-100 [6] = test: miR-100 level by quantitative stem-loop RT-PCR after pre-miR/anti-miR transfection; assay type: cell-based, human; conditions: 24 h following transfection; vs irrelevant-sequence controls; FIG. 2
Text: To verify the expression of miR-100 in pure cell populations of the vascular wall, stem-loop RT-PCR was used for total RNA-isolates from cultured human endothelial cells (HUVECs) and human aortic vascular smooth muscle cells.
MicoRNA expression was validated by quantitative stem-loop PCR technology (TaqMan MicroRNA Assays, Applied Biosystems, Foster City, Calif.). The use of target-specific reverse transcription primers and TaqMan hybridization probes allows the specific detection of mature microRNAs. MicroRNA expression was normalized to the expression of the small RNAs rnu19 and rnu48.
miR-100 was strongly expressed in both cell types. To investigate a potential role of miR-100 for angiogenesis, miR-100 was overexpressed and silenced in these cell types by transfecting specific miR-100 precursors (pre-miRs) or antisense-molecules (anti-miRs), respectively. […] Pre- and anti-miRs with an irrelevant nucleotide sequence served as negative controls. There was no significant difference in cellular viability following transfection with the different compounds.
For transfection with pre-miR microRNA precursor molecules or anti-miRmiRNA inhibitors (all Ambion), cells were cultured to 70% confluence and transfected with 8nM pre-miR-100 or anti-miR-100 oligonucleotides using Lipofectamin RNAiMax (invitrogen) according to the manufacturers instructions. […]

endothelial cells [7] = test: three-dimensional spheroid culture assay, endothelial sprouting; assay type: cell-based, human
endothelial cells [8] = test: BrdU-Incorporation (proliferation), endothelial cells; assay type: cell-based, human; conditions: FIG. 3
Text: as §3

mTOR = mTOR expression in endothelial cells after miR-100 modulation; assay type: cell-based, human; conditions: FIG. 5
Experimental: The binding site of miR-100 in the 3′-UTR of mTOR is shown in (FIG. 6.) In FIG. 6 the sequence designated hsa-miR-100 corresponds to SEQ ID NO:1 and the sequence having the designation mTOR 3′UTR corresponds to SEQ ID NO:7.
For transfection with pre-miR microRNA precursor molecules or anti-miRmiRNA inhibitors (all Ambion), cells were cultured to 70% confluence and transfected with 8nM pre-miR-100 or anti-miR-100 oligonucleotides using Lipofectamin RNAiMax (invitrogen) according to the manufacturers instructions. For transfection of HEK293 cells with mTOR plasmids, 2 μg DNA per 3×10E5 cells was transfected with Fugene 6 transfection reagent (Roche). For double transfection of plasmids with miRNA-precursors and inhibitors, pre- and anti-miRs were added to the plasmid/Fugene transfection mix in the same final concentrations as stated above. mTOR (Acc. NM004958) full length (SKU SC124066) and ORF-constructs (SKU RC220457) were obtained from the Origene collection (Origene, Rockville, Md.).

Substance | tissue localisation of antagomir [1] | flow ratio ([2]; day 7 following induction of ischemia, compared to two control-antagomirs) | capillary density ([2]; distal hindlimb / ischemic tissue) | perfusion restoration (blood flow restoration) ([2]; mice, after femoral artery occlusion, day 7, vs control-antagomirs or solvent, FIG. 9) | miR-100 expression in a wide selection of tissues (miR-100 [3]) | endothelial network formation (endothelial cells [4]) | leukocyte (PBMC) adhesion to transfected endothelial cells (HUVECs / human PBMCs) | leukocyte (PBMC) rolling on transfected endothelial cells (HUVECs / human PBMCs) | endothelial cell apoptosis (endothelial cells [5]) | detectable miR-100 (relative miR-100 expression) (miR-100 [6]) | endothelial sprouting (total sprout length) (endothelial cells [7]) | endothelial cell proliferation (DNA-synthesis rate) (endothelial cells [8]) | mTOR-expression on both mRNA as well as protein level (mTOR)
Antag-100: antagomir 5′-cacaaguucggaucuacggguu-3′ (SEQ ID No. 3), 2-O-methyl-RNA, phosphothioat modifications, cholesterol conjugation at 3′-end (antisense CACAAGUUCGGAUCUACGGGUU; all 2'-O-methyl, 3' {Chol}, backbone not given here; phosphorothioate modifications) | found in the endothelial layer of blood vessels; also recorded: most prominent accumulation was found in liver and lung sections | higher flow ratio | increase in capillary density | significant stimulation of perfusion restoration | strong and sustained suppression of miR-100 expression | – | – | – | – | – | – | – | –
anti-miR-100: antisense-molecule (anti-miR miRNA inhibitor, Ambion) silencing miR-100 in cultured cells; SEQ ID No:3 designated Anti miR (antisense CACAAGUUCGGAUCUACGGGUU; listed as RNA, chemistry not given here) | – | – | – | – | – | increased endothelial network formation | stimulatory effect | stimulatory effect | no significant effect | significantly decreased miR-100 levels | longer total sprout length | consistent stimulatory effect | significant upregulation
